Literature values as cited in publication PMC9635817, “In vitro inhibition of acetylcholinesterase activity by yellow field pea (Pisum sativum) protein-derived peptides as revealed by kinetics and molecular docking” (Frontiers in Nutrition, 2022).

System: AChE

## COc1cc2c(cc1OC)[C@@H]1[C@H](O)[C@@H](OC)C=C3CCN(C2)[C@H]31 [galanthine]
  AChE-inhibitory IC50: 1.96 µg/mL
